# US6011013A, “Contraceptive compositions and methods” (Oregon Health Sciences University, priority 1998, dated 2000)
# Key:
# [1] = test system: bovine caudal epididymal sperm; experiment: Sperm motility by computer-automated sperm motility analysis (CASMA), Forward Motility Index; format: cell-based
# Description: (A) Sperm were incubated in buffer A containing s-Ht31 at 5 μM (circle), 10 μM (square) or 50 μM (diamond) or a control peptide, S-Ht31-P at 50 μM (cross). Motility was assessed at the times indicated by computer-automated sperm motility analysis (CASMA) as described in Experimental Procedures. (B) Sperm were incubated for 5 min in buffer A containing increasing concentrations of S-Ht31 (diamonds) or control peptide S-Ht31-P (triangle) and motility was assessed.
# (A) Bovine caudal epididymal sperm were suspended in buffer A supplemented with 2 mM calcium (+Calcium) or 2 mM EGTA (-Calcium). Motility was assessed by CASMA at 5, 30 and 60 min following addition of either water (control) or 10 μM s-Ht31. (B) Sperm were incubated in buffer A containing 2 mM calcium and 50 mM bicarbonate (where indicated). Motility was assessed at 5, 30 and 60 min following addition of either water (control) or 10 μM s-Ht31.
# (§1) (A). Bovine caudal and caput sperm were incubated in buffer A in the presence or absence of 50 μM CDA and/or 50 μM H-89. When sperm were treated with both CDA and H-89, the H-89 was added 15 min prior to CDA. Motility was assessed by CASMA at 15 min following treatment. (B) Bovine sperm were incubated as described for A and then assessed for PKA activity. Where indicated, 10 μM cAMP was added to the PKA assay.
# Sperm Preparation. […]
# Sperm Motility Measurement. Head motility parameters were determined as previously described (Vijayaraghavan et al., Biol. Reprod 54:709-718, 1996; Stephens et al., Biol. Reprod. 38:577-586, 1988). […] After bulk fluid movement had subsided, six different locations on the slide were recorded. The videotaped segments were analyzed by a computerized image-analysis system (CASMA) as previously described (Vijayaraghavan et al., Biol. Reprod. 54:709-718, 1996; Stephens et al., Biol. Reprod. 38:577-586, 1988). […] FMI is a product of percent motile (%M, percent of sperm moving at velocity greater than […]) and average velocity (Va, the five-point smoothed average of the head positions through at least 20 of the 30 frames analyzed).
# [2] = test system: PKA; experiment: PKA activity of sperm treated whole, then washed and lysed; format: cell-based, bovine; conditions: 50 μM
# Description: as §1
# PKA Activity PKA was assayed as previously described (Carr et al., J. Biol. Chem. 268:20729-20732, 1993) with minor changes. Whole caput or caudal sperm were treated with 2-chloro-2-deoxyadenosine (50 μM), H-89 (50 μM), or both for 30 min. at 37° C. The sperm were then washed twice in ice cold homogenization buffer supplemented with protease inhibitors, benzamidine (10 mM), leupeptin (4 μg/ml), and N-tosyl-L-phenylalanine chloromethyl ketone (TPCK) (100 μM), and sonicated for one min. Reaction mixtures (20 uL total) contained 250 μM kemptide, 250 μM (γ-^32 P)ATP, 25 mM Na3 VO4, 50 mM 3-[N-morpholino]propanesulfonic acid (MOPS) (pH=7.0), 10 mM MgCl2, 0.25 mg/ml BSA and where indicated, 10 μM cAMP. Assays were initiated by addition of labeled ATP, incubated for 2 min at 30° C., and stopped by addition of 30 μL of 1N HCl. […] The papers were then analyzed by Cerenkov counting. […]
# [3] = test system: bovine caput sperm; experiment: Caput sperm motility by CASMA; format: cell-based; conditions: 50 μM H-89 added 15 min prior to 50 μM CDA
# Description: (A). Bovine caudal and caput sperm were incubated in buffer A in the presence or absence of 50 μM CDA and/or 50 μM H-89. When sperm were treated with both CDA and H-89, the H-89 was added 15 min prior to CDA. Motility was assessed by CASMA at 15 min following treatment. (B) Bovine sperm were incubated as described for A and then assessed for PKA activity. Where indicated, 10 μM cAMP was added to the PKA assay. Sperm Preparation. Testes from mature bulls with intact tunica were obtained from a local slaughter house and sperm from caput or caudal epididymis were isolated and washed as previously described (Vijayaraghavan et al., Biol. Reprod. 32:489-500, 1985). […] Head motility parameters were determined as previously described (Vijayaraghavan et al., Biol. Reprod 54:709-718, 1996; Stephens et al., Biol. Reprod. 38:577-586, 1988). […] After bulk fluid movement had subsided, six different locations on the slide were recorded. The videotaped segments were analyzed by a computerized image-analysis system (CASMA) as previously described (Vijayaraghavan et al., Biol. Reprod. 54:709-718, 1996; Stephens et al., Biol. Reprod. 38:577-586, 1988). […] FMI is a product of percent motile (%M, percent of sperm moving at velocity greater than […]) and average velocity (Va, the five-point smoothed average of the head positions through at least 20 of the 30 frames analyzed).
# [4] = test system: sperm; format: cell-based, bovine
# Description: To determine if S-Ht31 affects sperm viability or structural integrity, the vital dyes SYBR-green and rhodamine 123 were added to sperm before and after treatment with S-Ht31. Only viable, intact cells take up these dyes.
smiles,measurement,setting,value
"Nc1nc(Cl)nc2c1ncn2[C@H]1C[C@H](O)[C@@H](CO)O1 [CDA, 2-chloro-2-deoxyadenosine]",sperm motility under conditions where sperm PKA is inhibited,[1]; with H-89,still induce or stimulate sperm motility
same,increase of basal PKA activity,"[2]; both caudal and caput sperm, absence of cAMP",approximately 60%
"O=S(=O)(NCCNCC=Cc1ccc(Br)cc1)c1cccc2cnccc12 [H-89, N-[2-(p-bromocinnamylamino)ethyl]-5-isoquinoline-sulfonamide]",effect of preincubation on motility induction by CDA in caput sperm,[3],unaffected
same,effect on sperm motility stimulated by CDA,"[1]; 50 μM H-89, 50 μM CDA",had no effect
same,inhibition at 50 µM,"[1]; Bos taurus, Sperm, 50 μM, read-out: inhibition of basal sperm motility",≤ 50%
same,effect on cellular PKA activity,[2]; sperm washed before lysis,strongly inhibited PKA activity
C[C@@H]1CC[C@@]2(OC1)O[C@H]1[C@@H](O)[C@H]3[C@@H]4CC[C@H]5C[C@@H](O[C@@H]6O[C@H](CO)[C@H](O[C@@H]7O[C@H](CO)[C@@H](O)[C@H](O[C@@H]8OC[C@@H](O)[C@H](O)[C@H]8O)[C@H]7O[C@@H]7O[C@H](CO)[C@H](O)[C@H](O[C@@H]8O[C@H](CO)[C@@H](O)[C@H](O)[C@H]8O)[C@H]7O)[C@H](O)[C@H]6O)[C@H](O)C[C@]5(C)[C@H]4CC[C@]3(C)[C@H]1[C@@H]2C [digitonin],release of dyes from sperm loaded with BCECF or Fura 2 (plasma membrane integrity),[4],caused release of these dyes
CCCCCCCCCCCCCCCCCC(=O)N[C@@H](CC(=O)O)C(=O)N[C@@H](CC(C)C)C(=O)N[C@H](C(=O)N[C@@H](CCC(=O)O)C(=O)N[C@@H](CCC(=O)O)C(=O)N[C@@H](C)C(=O)N[C@@H](C)C(=O)N[C@@H](CO)C(=O)N[C@@H](CCCNC(=N)N)C(=O)N[C@H](C(=O)N[C@H](C(=O)N[C@@H](CC(=O)O)C(=O)N[C@@H](C)C(=O)N[C@H](C(=O)N[C@H](C(=O)N[C@@H](CCC(=O)O)C(=O)N[C@@H](CCC(N)=O)C(=O)N[C@H](C(=O)N[C@@H](CCCCN)C(=O)N[C@@H](C)C(=O)N[C@@H](C)C(=O)NCC(=O)N[C@@H](C)C(=O)N[C@@H](Cc1ccc(O)cc1)C(=O)O)C(C)C)[C@@H](C)CC)C(C)C)C(C)C)[C@@H](C)CC)[C@@H](C)CC [s-Ht31],release of dyes from sperm loaded with BCECF or Fura 2 (plasma membrane integrity),[4],did not compromise the integrity of the plasma membrane
same,sperm viability and plasma membrane integrity (uptake of vital dyes SYBR-green and rhodamine 123),[4],did not decrease viability or disrupt the integrity of the sperm plasma membrane
